Measurements as given in PMC5320518, “Novel Liver-targeted conjugates of Glycogen Phosphorylase Inhibitor PSN-357 for the Treatment of Diabetes: Design, Synthesis, Pharmacokinetic and Pharmacological Evaluations” (Scientific Reports, 2017).
Structures can show the parent of a compound that is named as a salt. Where two headings read alike, the source gives them in different places.

What was measured:
[1] = target: T1, rabbit muscle GPa (RMGPa) (Oryctolagus cuniculus, UniProt P00489); assay: RMGPa inhibition assay (phosphate release from glucose-1-phosphate); type: biochemical; conditions: for IC50: mean ± S.D. of three determinations, NI means no inhibition
T1 sequence (P00489 2-843 limits assumed): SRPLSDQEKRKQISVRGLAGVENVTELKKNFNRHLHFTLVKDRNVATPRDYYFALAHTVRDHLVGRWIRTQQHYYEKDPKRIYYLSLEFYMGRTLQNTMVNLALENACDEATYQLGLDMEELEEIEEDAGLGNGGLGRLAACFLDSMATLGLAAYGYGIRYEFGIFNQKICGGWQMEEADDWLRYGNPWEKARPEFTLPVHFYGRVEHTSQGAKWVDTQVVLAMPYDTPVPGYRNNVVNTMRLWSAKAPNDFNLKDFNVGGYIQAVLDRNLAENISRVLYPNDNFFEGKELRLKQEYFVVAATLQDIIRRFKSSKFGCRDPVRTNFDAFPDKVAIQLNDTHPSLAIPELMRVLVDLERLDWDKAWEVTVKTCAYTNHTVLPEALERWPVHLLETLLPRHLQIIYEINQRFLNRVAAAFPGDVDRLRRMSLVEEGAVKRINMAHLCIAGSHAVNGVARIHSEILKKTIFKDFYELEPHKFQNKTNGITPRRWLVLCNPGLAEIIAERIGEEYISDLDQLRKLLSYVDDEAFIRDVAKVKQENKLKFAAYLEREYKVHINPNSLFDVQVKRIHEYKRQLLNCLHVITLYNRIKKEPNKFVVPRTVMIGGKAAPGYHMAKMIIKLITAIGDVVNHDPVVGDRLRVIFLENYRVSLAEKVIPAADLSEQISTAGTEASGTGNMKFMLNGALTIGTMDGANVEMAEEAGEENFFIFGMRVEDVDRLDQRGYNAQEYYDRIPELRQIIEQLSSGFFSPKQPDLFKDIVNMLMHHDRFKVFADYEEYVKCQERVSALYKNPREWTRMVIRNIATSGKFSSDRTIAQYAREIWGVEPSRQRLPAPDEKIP
Experimental: All the compounds were evaluated for their inhibitory activity against rabbit muscle GPa (RMGPa). The activity of RMGPa was measured through detecting the release of phosphate from glucose-1-phosphate in the direction of glycogen synthesis. CP-91149, a well-known allosteric GP inhibitor, which shares the same binding site with PSN-357, was used as the positive control and the results are summarized in Table 1[21]. […] This remarkable loss of activity was probably due to the direct steric interference by such bulky substituent of cholic acid group. […] The results is consistent with the SARs of PSN-357 that the hydroxyl of piperidine is not an essential group for the GP inhibitory activity that could be modified slightly.
The inhibitory activity of the test compounds against rabbit muscle glycogen phosphorylase a (GPa) was monitored using microplate reader (BIO-RAD) based on the published method. In brief, GPa activity was measured in the direction of glycogen synthesis by the release of phosphate from glucose-1-phosphate. Each test compound was dissolved in DMSO and diluted at different concentrations for IC50 determination. The enzyme was added into 100 μL of buffer containing 50 mM Hepes (pH = 7.2), 100 mM KCl, 2.5 mM MgCl2, 0.5 mM glucose-1-phosphate, 1 mg/mL glycogen and the test compound in 96-well microplates (Costar). After the addition of 150 μL of 1 M HCl containing 10 mg/mL ammonium molybdate and 0.38 mg/mL malachite green, reactions were run at 22 °C for 25 min, and then the phosphate absorbance was measured at 655 nm. The IC50 values were estimated by fitting the inhibition data to a dose-dependent curve using a logistic derivative equation.

isolated rat hepatocytes = assay: Glycogenolysis inhibition in isolated rat hepatocytes; type: cell-based; conditions: mean ± S.D. of three, NI means no inhibition
Text: (§1) To evaluate the effects of all compounds in cells, the glycogenolysis assays were established in both rat and human liver cells based on the published method. […] The inhibitory activities of the derivatives of PSN-357 (e.g. 25–28) were also explored. It is not surprising that the derivatives still retained micromolar inhibitory activities. Introduction of steric bulks to the hydroxyl group (e.g. 33, 40, 42, 48) led to a complete loss of activity. Data analysis indicated no clear SAR for the substitutents in the cell-based assays.
(§2) The inhibition of hepatic glycogenolysis was monitored by the measurement of liver glycogen, which was done quantitatively by the anthrone reagent (Sigma) colorimetric method based on the published method. Isolated rat hepatocytes or HepG2 cells (Sigma) were treated with the test compound or DMSO solvent (final concentration, 0.10%), followed by 60-min incubation with 0.3 nM glucagon (GGN). Assays were terminated by centrifugation, and cells were digested with 30% KOH followed by glycogen determination. The IC50 values were estimated by fitting the inhibition data to a dose-dependent curve using a logistic derivative equation.

HepG2 cells = assay: Glycogenolysis inhibition in HepG2 cells; type: cell-based, human; conditions: read-out: IC50 (glycogenolysis inhibition, HepG2 cells)
Text: as §1, §2

[2] = Stability in simulated gastric fluid (SGF); type: in vitro ADME; conditions: SGF pH 1.21 with pepsin, 2 μM, 37 °C
Experimental: (§3) All the conjugates were tested for their chemical and metabolic stability in multiple assays, including simulated gastric fluid (SGF), simulated interstinal fluid (SIF), mouse plasma, and mouse liver microsome (MLM).
(§4) For the stability in SGF (Fig. 8) and SIF (Fig. 9), the conjugates could be divided into three groups: (1) stable conjugates 2, 6 and 9. […] The two conjugates were degraded within 6 h and 1 h in SGF and SIF, respectively, with alomost no conjugates at the end of the 24 h incubation in both SGF and SIF; (3) complicated conjugates 3, 4, 5 and 8.
(§5) The simulated gastrointestinal fluids were prepared according to USP specifications. For SGF, NaCl (0.12 g) and pepsin (0.18 g, from porcine stomach mucosa) was dissolved in HCl (0.42 mL) and sufficient H2O was added to make 60 mL. The pH of the test solution was determined as 1.21 by pH meter. For the SIF, KH2PO4 (0.408 g) and pancreatin (0.6 g, from porcine pancreas) was dissolved in H2O (60 mL). The pH of the test solution was determined as 6.79 by pH meter. Each test compound was dissolved in DMSO and diluted to a final concentration of 2 μM in SIF and SGF. The final concentrations of DMSO and CH3CN in the incubation mixture were 0.2% and 0.45%. Aliquots of these solutions were pipetted into glass tubes, and placed in a 37 °C shaking water bath. Test samples at corresponding time point (1, 2, 6, 24 h) were removed at the end of incubation time and immediately mixed with 800 μL of cold acetonitrile containing 500 ng/mL tolbutamide (internal standard). Samples were subjected to centrifuge at 4000 rpm, 4 °C for 20 min. Aliquots 60 μL of supernatant was combined with 120 μL water for LC-MS/MS analysis.

[3] = Stability in simulated intestinal fluid (SIF); type: in vitro ADME; conditions: SIF pH 6.79 with pancreatin, 2 μM, 37 °C
Experimental: as §3, §4, §5

[4] = Stability in mouse liver microsomes (MLM); type: in vitro ADME; conditions: C57BL/6, pH 7.4, n = 3
Experimental: Additionally, the compounds’ stability in microsome were evaluated by measuring the rate of compounds consumpation in MLM and the results are shown in Table 3.
The microsomal pellet was suspended in potassium phosphate buffer (100 mM, pH 7.4), 10 μM test compound or positive control (diclofenac) was added. Liver microsomes from C57BL/6 mice (BD Gentest) were pooled. The mixture of microsome solution and compound was incubated at 37 °C for about 10 min in the presence of a NADPH-regenerating system, consisting of 0.02 M DL-isocitric acid (trisodium salt), 0.1 mg/mL isocitrate dehydrogenase and 1 mM NADPH. The addition of ice-cold CH3CN (including 100 ng/mL tolbutamide as internal standard) terminated the reaction. The mixture was vortexed for approx (30 s), centrifuged (20 min, 4000 rpm) and the supernatant was collected and analysed by LC-MS/MS method.

[5] = Hepatocyte, 1 h, isolated rat hepatocytes, 60-min incubation with 0.3 nM glucagon, read-out: IC50 (glycogenolysis inhibition, rat hepatocytes)
[6] = Homo sapiens, HepG2, 1 h, HepG2 cells, 60-min incubation with 0.3 nM glucagon, mean ± S.D. of three, NI means no inhibition
[7] = Rattus norvegicus, Hepatocyte, 1 h, read-out: IC50 (glycogenolysis inhibition, rat hepatocytes), isolated rat hepatocytes, 60-min incubation with 0.3 nM glucagon

| Compound | IC50 [1] [µM] | IC50 (isolated rat hepatocytes; [5]) [µM] | IC50 (HepG2 cells; [6]) [µM] | melting point [°C] | also measured |
| --- | --- | --- | --- | --- | --- |
| N[C@@H](CO)C(=O)OC1CCN(C(=O)[C@H](Cc2ccc(F)cc2)NC(=O)c2cc3cc(Cl)ncc3[nH]2)CC1 [Compound 28] | 0.52 ± 0.01 | 13.6 ± 0.23 | 2.88 ± 0.16 | – | fold less potent than PSN-357 (RMGPa) ([1]; vs PSN-357): approximately 1.25 fold |
| CC(C)[C@H](N)C(=O)OC1CCN(C(=O)[C@H](Cc2ccc(F)cc2)NC(=O)c2cc3cc(Cl)ncc3[nH]2)CC1 (as salt: hydrochloride) [Compound 27] | – | – | – | 214 to 216 | – |
| C[C@H](N)C(=O)OC1CCN(C(=O)[C@H](Cc2ccc(F)cc2)NC(=O)c2cc3cc(Cl)ncc3[nH]2)CC1 [Compound 26] | 0.56 ± 0.043 | 9.79 ± 9.65 | 6.99 ± 2.1 | – | – |
| CC(NC(=O)C(NC(=O)CCC(C)C1CCC2C3C(O)CC4CC(O)CCC4(C)C3CC(O)C12C)C(C)C)C(=O)OC1CCN(C(=O)C(Cc2ccc(F)cc2)NC(=O)c2cc3cc(Cl)ncc3[nH]2)CC1 (stereo not shown) [Conjugate 7] | 6.07 ± 0.27 | – | 11.7 ± 3.8 | – | IC50 (isolated rat hepatocytes; [7]): 42.1 ± 10.9 µM; time within which degraded in SGF [2]: ≤ 6 h; time within which degraded in SIF [3]: ≤ 1 h; CLint scaled at 10 μM [4]: 1180 mL/min/kg; half-life at 10 μM [4]: 4.7 min; microsomal CLint at 10 μM [4]: 297 µL/min/mg |
| CC(C)[C@H](N)C(=O)OC1CCN(C(=O)[C@H](Cc2ccc(F)cc2)NC(=O)c2cc3cc(Cl)ncc3[nH]2)CC1 [Compound 27] | 0.88 ± 0.17 | 14.7 ± 4.99 | 16.8 ± 3.71 | – | – |
| CC(C)(C)OC(=O)c1ccc(/N=N/c2ccccc2CCC(=O)OC2CCN(C(=O)[C@H](Cc3ccc(F)cc3)NC(=O)c3cc4cc(Cl)ncc4[nH]3)CC2)cc1 [Compound 47] | – | 97.6 ± 1.1 | – | 123 to 125 | – |
| CN(C)C(=O)[C@H](O)[C@H](Cc1ccccc1)NC(=O)c1cc2cc(Cl)ccc2[nH]1 [CP-91149, reference compound] | 0.09 ± 0.04 | – | – | – | IC50 (isolated rat hepatocytes; isolated rat hepatocytes, 60-min incubation with 0.3 nM glucagon, read-out: IC50 (glycogenolysis inhibition, rat hepatocytes)): 3.08 ± 1.16 µM; IC50 (HepG2 cells; HepG2 cells, 60-min incubation with 0.3 nM glucagon, mean ± S.D. of three, NI means no inhibition): 2.53 ± 0.78 µM |
| O=C(O)Cc1ccccc1Nc1c(Cl)cccc1Cl [Diclofenac, diclofenac, reference compound] | – | – | – | – | CLint scaled at 10 μM [4]: 208 mL/min/kg; half-life at 10 μM [4]: 26.3 min; microsomal CLint at 10 μM [4]: 52.6 µL/min/mg |
| CC(C)(C)OC(=O)N[C@@H](Cc1ccccc1)C(=O)N[C@@H](CCCCNC(=O)OCC1c2ccccc2-c2ccccc21)C(=O)OC1CCN(C(=O)[C@H](Cc2ccc(F)cc2)NC(=O)c2cc3cc(Cl)ncc3[nH]2)CC1 [Compound 40] | 3.44 ± 0.22 | 38.4 ± 5.76 | 33.6 ± 12.2 | – | – |
| CC(C)(C)OC(=O)C[C@H](NC(=O)OC(C)(C)C)C(=O)OC1CCN(C(=O)[C@H](Cc2ccc(F)cc2)NC(=O)c2cc3cc(Cl)ncc3[nH]2)CC1 [Compound 25] | 0.81 ± 0.077 | 10.2 ± 1.13 | 15.1 ± 4.11 | 118 to 120 | – |
| O=C(CCc1ccccc1/N=N/c1ccc(C(=O)O)cc1)OC1CCN(C(=O)[C@H](Cc2ccc(F)cc2)NC(=O)c2cc3cc(Cl)ncc3[nH]2)CC1 [Compound 48] | 3.11 ± 0.05 | 35 ± 3.46 | 9.18 ± 7.42 | 127 to 129 | – |
| C[C@H](NC(=O)CC[C@@H](C)[C@H]1CC[C@H]2[C@@H]3[C@H](O)C[C@@H]4C[C@H](O)CC[C@]4(C)[C@H]3C[C@H](O)[C@]12C)C(=O)OC1CCN(C(=O)[C@H](Cc2ccc(F)cc2)NC(=O)c2cc3cc(Cl)ncc3[nH]2)CC1 [Conjugate 3] | 40.5 ± 15.7 | – | – | – | IC50 (isolated rat hepatocytes; [7]): 632 ± 99.4 µM; stability in SGF (in words) ([2]; 24 h incubation): relatively stable; time within which degraded in SIF [3]: ≤ 1 h; CLint scaled at 10 μM [4]: 200 mL/min/kg; half-life at 10 μM [4]: 27.4 min; microsomal CLint at 10 μM [4]: 50.6 µL/min/mg |
| CC(CCC(=O)NC(Cc1ccccc1)C(=O)NC(CCCCNC(=O)OCC1c2ccccc2-c2ccccc21)C(=O)OC1CCN(C(=O)C(Cc2ccc(F)cc2)NC(=O)c2cc3cc(Cl)ncc3[nH]2)CC1)C1CCC2C3C(O)CC4CC(O)CCC4(C)C3CC(O)C12C (stereo not shown) [Compound 42] | 15.4 ± 0.89 | 5.56 ± 2.41 | – | 149 to 151 | IC50 (HepG2 cells; Homo sapiens, HepG2, 1 h): 180 ± 51.2 µM |
| CC(C)[C@H](NC(=O)OC(C)(C)C)C(=O)N[C@@H](C)C(=O)OC1CCN(C(=O)[C@H](Cc2ccc(F)cc2)NC(=O)c2cc3cc(Cl)ncc3[nH]2)CC1 [Compound 33] | 27 ± 6.39 | 11.1 ± 3.67 | – | 151 to 153 | – |
